In brackets after ≈: the same amount, converted by molar mass. Marks after values point to notes of the source that are not given here.
Key:
[1] = Solubility of cholecalciferol and cholecalciferol phosphate (disodium, acid); type: physicochemical; settings: read-out: Solubility
Procedure: Aliquots of cholecalciferol, cholecalciferol phosphate disodium, and cholecalciferol phosphate acid were added to a range of solvents including propylene glycol (PG), distilled water, methanol, ethyl acetate, ethanol, n-hexane, and the visual solubility was determined. A precise assessment of the saturation solubility was for some of the solvent systems was made using high-performance liquid chromatography (HPLC). In the HPLC solubility studies, an excess of each solute was added into 2 mL of each test solvent. The solutions were left stirring overnight at room temperature, (RT), 22° C. The saturation of the solutions was confirmed by the visual appearance of crystals and the drug suspensions were filtered through 0.2 μm cellulose acetate syringe filters, diluted with excess of mobile phase, and the solute concentration of each sample was assessed using HPLC.

[2] = Chemical stability of cholecalciferol and cholecalciferol phosphate disodium in donor, extraction and receiver fluids; type: physicochemical; settings: for remaining at 24 h: 37° C.
Procedure: To assess the chemical stability of the test agents in the liquids in which they were to be dissolved for the skin permeation experiments, 1 mg/mL solutions of cholecalciferol and cholecalciferol phosphate disodium in propylene glycol (PG) were prepared and incubated at 37° C. for 24 h. In addition, 100 μg/mL cholecalciferol in 50:50 PG:ethanol mixture, 100 μg/mL cholecalciferol phosphate disodium in 90:10 methanol:water mixture as well as and in 50% PG 40% Methanol: 10% water pH 3.2 (90:10) were also incubated at 37° C. for 24 hours.

[3] = Solubility of iron chloride hexahydrate and iron complexes (visual / assayed); type: physicochemical
Procedure: Due to the high number of test samples (6 complexes plus the starting material, iron chloride hexahydrate) a visual solubility screen was used to screen the solubility in a range of solvents. […] Quantitative determination was performed by either incubating the complex in excess in the solvent using a shaking 37° C. water bath for 48 h or sonicating it for 2 hours at 40° C. or leaving overnight on a 50° C. hot plate. Once incubation period was completed, the exact solubility in a particular solvent was assayed (using the iron assay) after centrifugation (i.e. assay iron content in the supernatant using the Ferrozine® assay).

[4] = Franz cell porcine skin permeation and deposition of iron from solutions; type: in vitro ADME; settings: for permeation and deposition in the skin: solutions
Procedure: The permeation of the iron complexes from the formulations into and across porcine skin mounted on Franz cells with a receiver fluid was tested (FIG. 4). This was based on the principles of the FDA, SUPAC-SS guidelines. The developed colorimetric assay method was used for iron quantification.
(§1) On the day of the experiment, the skin was defrosted. For the full thickness studies, the subcutaneous fat removed (2.5 mm thick) and for the dermatomes skin studies the tissued was dermatomed to a 1 mm thickness. The tissue was cut into the appropriate size sections (2.19±0.21 cm^2) and mounted between donor and receiver compartments of Franz diffusion cells with the SC facing the donor compartment. Each cell was sealed using parafilm and 12 mm magnetic stir bars were placed into the receiver compartment. The receiver compartment was filled with the desired receiver solution and the Franz cells were placed in a stirring water bath at 37° C. Cells were allowed to equilibrate for 30 min after which the receiver fluid using was mixed using a syringe and the “zero hour” sample was withdrawn from the arm and compensate with the same volume of fresh pre-warmed solution. Following zero-hour sampling, the donor solution was placed in the donor compartment and covered with parafilm. Samples were withdrawn and compensated with fresh receiver solution at set time intervals for a 24 h duration. The iron in each sample was quantified using the method specified in Section 2.2.2.1. […] There was no matrix interference noted in the assay. […] For iron maltol a 80:20 PG:water receiver was used along with a complementary calibration for iron assay (iron chloride in PG:water). The donor solution for the iron maltol made at pH 1.6 was 200 μL of 100 mg/mL complex in Transcutul®, for iron maltol made at pH 4 the donor solution was 200 μL of 23 mg/mL complex in PG and for iron maltol made at pH 4 the donor solution was 150 μL of 16 mg/mL complex in 7.5:1.5:1:1 water:PG:dimethicone:ethanol.
Once the permeation studies were completed the donor solutions were collected into bottles containing the extraction solution. This was followed by skin surface cleaning using four cotton buds, the first two were wetted by the extraction fluid and the second two were used dry. Then two tape striping procedures were performed using 2 tapes to remove any iron on the skin surface with the tape being added to the donor solution and cotton buds in the donor recover vial. For the full skin thickness skin, the Stratum corneum, the dermal and the epidermal layers were isolated in the same way as the recovery method (Section 2.3.2.1). Extraction fluid (50:50 PBS:ethanol) was then added to the tissues, 4 mL to the Stratum corneum, and 2 mL for each of the epidermis and dermis. For the dermatomed skin the whole skin section was chopped up and placed in a 2 mL extraction fluid (ethanol).
The Stratum corneum samples were placed on vibrating plate for a minimum of 2 h to extract the iron and then vortexed prior assay. The epidermis, dermis or dermatomed samples however were incubated with the extraction fluid for 1 h after which were transferred to Eppendorf tubes, one stainless steel 5 mm bead was added and the samples were loaded into the TissuLyser II (Qiagen, Germany) for 30-15 min at 30 Hz. The samples were then centrifuged (5 min at 13,000 rpm) and supernatant assayed.

[5] = Visual skin damage / necrosis after iron permeation study; settings: after 24 h permeation study, porcine skin
Text: as §1

[6] = Iron complex adhesive compatibility and loading screen; type: physicochemical
Procedure: Pre-formulation studies were performed to determine the compatibility of the iron complexes with a range of transdermal patch adhesives (Table 15).
The compatibility of the complexes with the patch adhesives was assessed by mixing and visually checking the clarity of the mixture.
In the adhesives that were computable with the iron complexes the maximum drug loading of the complexes in the adhesive following solvent evaporation was determined. This was achieved by mixing the drug, adhesive and co-solvents until a clear solution was obtained at different drug:adhesive ratios and placing few drops of the mixture onto the patch backing sheet, leaving it to dry for 3-4 h, and examining the formed film on the surface of the backings for evidence of drug crystals.
Following complete drying of the solvents, the adhesive layer was covered by a release liner, compressed, and then cut using 34 mm circular manual die cutter (FIG. 23).

[7] = Iron complex reservoir solvent solubility screening; type: physicochemical
Text: Iron complex was again screened with a range of suitable excipients and solvents to formulate a solution of high concentration that could be loaded into the patch reservoir. The solvents screened included ethanol, methanol, PG, PEG400, SDS, Tween 85, Span 20, Kolliphore®, Natrsol M250 and dimethicone (Note: methanol is not suitable for formulation but it was used to increase solubility in the other solvents. It was evaporated prior to formulation testing).

[8] = Solubility of zinc chloride and zinc complexes (visual / HPLC); type: physicochemical
Procedure: Accurate measurement of the solubility was then repeated for some of the solvent systems by HPLC. In the HPLC solubility studies, an excess of the test agents was loaded into 2 mL of each test solvent. The solutions were left stirring overnight at 32° C. […] The drug suspensions were then centrifuged, the supernatant diluted, and each sample concentration was measured using HPLC.

[9] = PG, 370 mg elemental iron dosed, 2 cm^2, 24 h
[10] = Iron maltol made at pH 7.4, 10 mg complex, 62.5 μL PG, 60 μL ethanol, 125 μL water, 62.5 μL Kolliphore
[11] = Iron maltol made at pH 7.4, 10 mg complex, 125 μL PG, 60 μL ethanol, 62.5 μL water, 62.5 μL Kolliphore

C=C1CC[C@H](O)C/C1=C/C=C1\CCC[C@]2(C)[C@@H]([C@H](C)CCCC(C)C)CC[C@@H]12 [Cholecalciferol, reference compound]
Solubility ([1]; organic solvent or mixture, solvent PG): 7.8 ± 0.19 mg/mL (≈ 20.3 mM)
Solubility ([1]; solvent PG + 5% water): 2.4 ± 0.002 mg/mL
Solubility ([1]; solvent PG + 10% water): 1.1 ± 0.005 mg/mL
Solubility ([1]; solvent PG + 20% water): 0.7 ± 0.004 mg/mL
remaining at 24 h ([2]; PG): 93 ± 13%
chemical stability (in words) ([2]; conclusions): indication of chemical instability
remaining at 24 h ([2]; extraction fluid 50:50 PG:ethanol): 92 ± 8%

O.O.O.O.O.O.[Cl-].[Cl-].[Cl-].[Fe+3] [Iron chloride hexahydrate, reference compound]
Solubility, equivalent elemental iron ([3]; PG): 370 mg/mL
Solubility ([3]; PG, as iron chloride hexahydrate): 1400 mg/mL
elemental iron permeated the skin [4, 9]: 180 mg
elemental iron permeated, percent of dose [4, 9]: 48%
dose above the desired target (4.6 mg) ([4]; PG, 24 h): 40 times
skin damage / necrosis [5]: necrosis of the skin

Cc1occc(=O)c1[O-].Cc1occc(=O)c1[O-].Cc1occc(=O)c1[O-].[Fe+3] [Iron maltol made at pH 1.6, iron maltol]
Solubility of complex (visual) ([3]; PEG400): <6 mg/mg/mL
Solubility of complex (visual) ([3]; PG): <6 mg/mg/mL
Solubility of complex ([3]; Transcutul): 100 mg/mg/mL
Solubility, equivalent elemental iron ([3]; Transcutul): to 13 mg/ mg/mL
permeation and deposition in the skin ([4]; 24 h): permeated and deposited in the skin
skin damage / necrosis [5]: caused skin necrosis

Cc1occc(=O)c1[O-].Cc1occc(=O)c1[O-].Cc1occc(=O)c1[O-].[Fe+3] [Iron maltol made at pH 4, iron maltol]
Solubility of complex ([3]; PEG400): 20 mg/mg/mL
Solubility, equivalent elemental iron ([3]; PEG400): to 2.7 mg/ mg/mL
Solubility of complex ([3]; PG): 17 ± 5 mg/mg/mL
Solubility, equivalent elemental iron ([3]; PG): to 2.3 ± 0.6 mg/mL
Solubility ([3]; PG and PEG400 (conclusions)): 18 mg/mL
Solubility of complex (visual) ([3]; Transcutul): <6 mg/mL
total delivered dose ([4]; PG solution, 24 h): 65 μg/cm^2
permeation and deposition in the skin ([4]; 24 h): permeated and deposited in the skin
skin damage / necrosis [5]: without inducing skin necrosis

Cc1occc(=O)c1[O-].Cc1occc(=O)c1[O-].Cc1occc(=O)c1[O-].[Fe+3] [Iron maltol, iron maltol]
Solubility of complex (visual) ([3]; Chloroform): ≥20 mg/mL Iron
Solubility of complex (visual) ([3]; Ethanol): ≥6 mg/mL Iron maltol*
Solubility of complex (visual) ([3]; Ethyl acetate): <6 mg/mL Iron maltol*
Solubility of complex (visual) ([3]; Hexane): <6 mg/mL Iron maltol*
Solubility of complex (visual) ([3]; Methanol): ≥18 mg/mL Iron
Solubility of complex (visual) ([3]; Oleic acid): <6 mg/mL Iron maltol*
Solubility of complex (visual) ([3]; Propanol): <6 mg/mL Iron maltol*
Solubility of complex (visual) ([3]; Triaceten): <6 mg/mL Iron maltol*
compatibility with adhesives [6]: only compatible with DURO-TAK 9301
(maximum) complex loading achieved in adhesive ([6]; methanol stock solution 10 mg/mL): 4%
complex loading achieved in adhesive patch ([6]; methanol stock solution 18 mg/mL): 8.5%
Observation (solubility, complex) ([7]; Iron maltol made at pH 4, 10 mg complex, 50 μL 2% Nitrosol, 50 μL PG): 22 mg/mL
Observation ([7]; Iron maltol made at pH 4, 20 mg complex, 0.1 mL Kolliphore, 0.1 mL PEG400): Precipitated
Observation ([7]; Iron maltol made at pH 4, 20 mg complex, 0.1 mL Kolliphore, 0.1 mL PEG400, 10% SDS): Precipitated
Observation ([7]; Iron maltol made at pH 4, 20 mg complex, 0.2 mL Kolliphore): Precipitated
Observation ([7]; Iron maltol made at pH 4, 100 mg complex, 2 mL methanol, 1 mL 80:20 PEG400:PEG1000, precipitate upon methanol evaporation): Precipitate
Observation [7, 10]: Clear
Visual solubility (complex) [7, 10]: (32 mg/mL
Observation ([7]; Iron maltol made at pH 7.4, 10 mg complex, 62.5 μL PG, 62.5 μL water, 125 μL Kolliphore): Precipitated
Observation [7, 11]: Clear
Visual solubility (complex) [7, 11]: (32 mg/mL
Observation ([7]; Iron maltol made at pH 7.4, 20 mg complex, 6 μL Span 20, 0.125 mL ethanol, 0.5 mL PG): Precipitated
Observation ([7]; Iron maltol made at pH 7.4, 30 mg complex, 6 μL Tween 85, 0.125 mL ethanol, 0.5 mL PG): Precipitated
Observation ([7]; Iron maltol made at pH 7.4, 40 mg complex, 12 mg SDS, 0.125 mL ethanol, 0.5 mL PG): Precipitated

[Cl-].[Cl-].[Zn+2] [Zinc Chloride, Zinc chloride, reference compound]
Elemental zinc solubility (visual) ([8]; solvent PEG400, visual solubility (*)): ~2.7* mg/mL
Elemental zinc solubility evaluated by HPLC ([8]; solvent PG): 2.7 mg/mL

— patent US20260306421A1, “SYSTEMS AND METHODS FOR TRANSDERMAN PATCH DELIVERY” (VITAMAX PATCH WHOLESALER LLC, priority 2022, published 2026)
